Test results as given in article PMC8387997 (ACS Omega, 2021).
“Also recorded” adds a separate entry of the source.

Experiments:
PB1(2) = PB1(2) (Homo sapiens, UniProt Q86U86); test: bromoSCAN; format: binding
SMARCA2B = SMARCA2B (Homo sapiens, UniProt P51531); test: bromoSCAN; format: binding
PB1(5) = PB1(5) (Homo sapiens, UniProt Q86U86); test: bromoSCAN; format: binding; details: for selectivity for PB1(5) over SMARCA2B: from bromoSCAN KD values
BRD9 = BRD9 versus other bromodomains; cited from earlier work
[1] = tested on: panel of 32 bromodomains, including BET bromodomains; test: bromoMAX panel screen, Eurofins; format: binding; details: screened at 10 μM against 32 bromodomains

Sequence of PB1(2) (Q86U86 177-287 limits assumed): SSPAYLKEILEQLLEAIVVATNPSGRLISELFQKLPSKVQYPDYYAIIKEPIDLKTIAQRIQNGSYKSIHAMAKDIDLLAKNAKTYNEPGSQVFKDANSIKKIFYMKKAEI
Sequence of PB1(5) (Q86U86 653-763 limits assumed): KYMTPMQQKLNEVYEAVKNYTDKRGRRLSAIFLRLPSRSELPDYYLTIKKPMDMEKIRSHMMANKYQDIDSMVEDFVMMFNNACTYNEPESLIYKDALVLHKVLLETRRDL
Sequence of SMARCA2B (P51531 1-1572 isoform P51531-2): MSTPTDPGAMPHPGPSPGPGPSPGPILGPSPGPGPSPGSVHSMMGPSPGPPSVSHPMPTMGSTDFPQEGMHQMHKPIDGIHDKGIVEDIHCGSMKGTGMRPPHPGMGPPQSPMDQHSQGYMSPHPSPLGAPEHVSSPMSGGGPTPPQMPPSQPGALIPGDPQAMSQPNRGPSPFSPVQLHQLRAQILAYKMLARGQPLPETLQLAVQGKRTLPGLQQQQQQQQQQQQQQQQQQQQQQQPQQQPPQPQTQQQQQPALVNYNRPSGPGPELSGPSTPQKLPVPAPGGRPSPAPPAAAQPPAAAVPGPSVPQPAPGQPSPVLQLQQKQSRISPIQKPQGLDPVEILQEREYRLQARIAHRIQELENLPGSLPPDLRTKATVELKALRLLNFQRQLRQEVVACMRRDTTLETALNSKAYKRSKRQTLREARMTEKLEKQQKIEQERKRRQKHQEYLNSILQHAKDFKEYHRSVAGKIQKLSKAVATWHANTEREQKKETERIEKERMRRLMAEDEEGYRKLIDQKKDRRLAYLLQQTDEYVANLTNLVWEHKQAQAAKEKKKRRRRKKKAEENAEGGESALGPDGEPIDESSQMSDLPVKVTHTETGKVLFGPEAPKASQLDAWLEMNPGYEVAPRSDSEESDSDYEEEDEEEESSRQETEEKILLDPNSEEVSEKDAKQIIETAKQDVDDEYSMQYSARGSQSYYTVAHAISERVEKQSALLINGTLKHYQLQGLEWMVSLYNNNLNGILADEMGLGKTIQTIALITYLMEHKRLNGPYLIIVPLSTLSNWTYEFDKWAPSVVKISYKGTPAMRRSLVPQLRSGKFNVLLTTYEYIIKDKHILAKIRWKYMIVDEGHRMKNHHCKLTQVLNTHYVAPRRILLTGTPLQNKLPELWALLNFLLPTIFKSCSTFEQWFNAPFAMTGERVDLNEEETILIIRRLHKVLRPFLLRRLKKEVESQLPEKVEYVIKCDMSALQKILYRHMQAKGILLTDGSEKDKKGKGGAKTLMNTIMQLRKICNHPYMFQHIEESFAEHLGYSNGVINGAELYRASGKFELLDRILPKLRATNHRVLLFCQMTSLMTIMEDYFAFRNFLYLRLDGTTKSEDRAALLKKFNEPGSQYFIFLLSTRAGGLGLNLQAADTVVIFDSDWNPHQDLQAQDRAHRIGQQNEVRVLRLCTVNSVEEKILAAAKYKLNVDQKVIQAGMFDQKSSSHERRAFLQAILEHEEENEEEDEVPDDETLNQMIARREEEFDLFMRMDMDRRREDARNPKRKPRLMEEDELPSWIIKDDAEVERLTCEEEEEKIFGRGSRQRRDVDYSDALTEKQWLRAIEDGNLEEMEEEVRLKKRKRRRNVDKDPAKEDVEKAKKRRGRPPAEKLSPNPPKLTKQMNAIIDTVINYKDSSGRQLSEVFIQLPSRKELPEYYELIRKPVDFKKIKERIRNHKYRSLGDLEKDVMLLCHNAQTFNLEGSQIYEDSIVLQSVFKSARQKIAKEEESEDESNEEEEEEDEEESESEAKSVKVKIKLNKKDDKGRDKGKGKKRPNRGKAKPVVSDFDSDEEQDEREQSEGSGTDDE

Row | Kd (PB1(2)) [nM] | Kd (SMARCA2B) [µM] | Kd (PB1(5)) [nM] | selectivity for PB1(5) over SMARCA2B (PB1(5)) [fold] | selectivity for PB1(2) over SMARCA2B (PB1(2); from bromoSCAN KD values) [fold] | Structure (SMILES) | selectivity over a panel of other bromodomains (BRD9) | binding profile in bromoMAX panel [1]
1 | 5400 | 26 | 1100 | ~24 | – | CCC(/C=C1\CCCn2c1nc(=O)c1c(Cl)cccc12)CC [Compound 21, (E)-7-Chloro-4-(2-ethylbutylidene)-1,2,3,4-tetrahydro-6H-pyrido[1,2-a]quinazolin-6-one] | – | –
2 | – | – | – | – | – | CCn1cc(-c2cccc(C(F)(F)F)c2)c2sc(C(=N)NC3CCS(=O)(=O)CC3)cc2c1=O [I-BRD9] | more than 70 fold | –
3 | 110 | 2.1 | 61 | ~34 | ~19 | CCC(CC)C1CC12CCn1c2nc(=O)c2c(Cl)cccc21 (centres unmarked) [LM146, 6′-Chloro-2-(pentan-3-yl)-1′,2′-dihydro-5′H-spiro[cyclopropane-1,3′-pyrrolo[1,2-a]quinazolin]-5′-one] | – | does not interact with bromodomains outside of sub-family VIII; also recorded: only binds to bromodomains within the sub-family VIII; also recorded: no binding to any bromodomains outside the sub-family VIII
